These are literature values, as cited in patent US11020390B2, “Bioequivalent pharmaceutical composition of vortioxetine hydrobromide” (UNICHEM LABORATORIES LTD, priority 2017, dated 2021).

For `Br.Cc1ccc(Sc2ccccc2N2CCNCC2)c(C)c1` [vortioxetine hydrobromide, 1-[2-(2,4-Dimethyl-phenylsulfanyl)-phenyl]-piperazine, hydrobromide], the solubility in water result was “relatively poor”.
